Source: paper PMC4374917, “Identification of Small Molecules that Disrupt Signaling between ABL and Its Positive Regulator RIN1” (PLoS ONE, 2015)
Where two headings read alike, the source gives them in different places.

Assays:
[1] = test system: native ABL1; design: method as in PMID 16415863, PMID 20072125; conditions: cited from earlier work
[2] = target: T1, RIN1::ABL1 interaction (RIN1-SBP / ABL1-eGFP) (Homo sapiens, UniProt P00519+Q13671); test: TR-FRET assay of RIN1::ABL binding; conditions: for IC50: 21 hits selected for cell-based assay, concentration-response curves in triplicate
T1 construct: The ABL1 amino terminus was amplified from AblWT1-531 (gift of Dr. John Kuriyan); TEV site-ProtA-Flag (C, cleaved yes); made in house; host or cells: Sf9 insect cells (baculovirus, pFastBac1)
T1 sequence (P00519 1-531 isoform P00519-2): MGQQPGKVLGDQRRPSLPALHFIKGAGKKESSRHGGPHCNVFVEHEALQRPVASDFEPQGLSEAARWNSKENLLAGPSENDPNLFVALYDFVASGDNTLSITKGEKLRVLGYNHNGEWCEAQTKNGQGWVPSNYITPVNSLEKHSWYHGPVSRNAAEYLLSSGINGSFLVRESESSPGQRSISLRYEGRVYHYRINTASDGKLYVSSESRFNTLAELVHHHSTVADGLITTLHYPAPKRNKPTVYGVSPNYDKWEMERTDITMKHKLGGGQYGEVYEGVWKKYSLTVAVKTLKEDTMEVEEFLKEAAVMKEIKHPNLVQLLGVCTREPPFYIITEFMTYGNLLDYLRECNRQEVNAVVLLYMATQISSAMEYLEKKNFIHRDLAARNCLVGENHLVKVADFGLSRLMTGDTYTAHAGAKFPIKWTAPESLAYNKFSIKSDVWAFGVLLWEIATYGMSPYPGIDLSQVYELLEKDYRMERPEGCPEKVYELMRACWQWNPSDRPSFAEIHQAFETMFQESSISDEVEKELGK
T1 sequence (Q13671 whole entry): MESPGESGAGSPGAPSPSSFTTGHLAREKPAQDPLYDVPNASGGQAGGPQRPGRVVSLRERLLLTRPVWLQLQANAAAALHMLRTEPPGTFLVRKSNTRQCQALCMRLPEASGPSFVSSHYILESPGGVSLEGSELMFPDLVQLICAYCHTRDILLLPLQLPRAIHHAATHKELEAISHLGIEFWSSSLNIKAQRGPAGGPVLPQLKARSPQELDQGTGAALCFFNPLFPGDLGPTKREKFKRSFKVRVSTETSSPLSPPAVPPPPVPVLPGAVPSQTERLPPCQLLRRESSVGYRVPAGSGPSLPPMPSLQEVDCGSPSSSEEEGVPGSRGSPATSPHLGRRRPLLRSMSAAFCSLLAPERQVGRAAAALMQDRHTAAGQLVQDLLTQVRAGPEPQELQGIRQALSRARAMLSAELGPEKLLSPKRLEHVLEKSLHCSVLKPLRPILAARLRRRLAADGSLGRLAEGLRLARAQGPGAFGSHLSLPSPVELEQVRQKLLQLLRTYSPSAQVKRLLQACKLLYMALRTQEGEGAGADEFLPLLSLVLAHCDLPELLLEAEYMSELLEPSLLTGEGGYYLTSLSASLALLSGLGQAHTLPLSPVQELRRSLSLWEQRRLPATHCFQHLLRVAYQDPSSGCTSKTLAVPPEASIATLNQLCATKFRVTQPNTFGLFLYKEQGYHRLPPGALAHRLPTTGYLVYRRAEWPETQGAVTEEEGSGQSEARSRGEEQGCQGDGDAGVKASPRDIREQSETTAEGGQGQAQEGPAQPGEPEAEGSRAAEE
Protocol: To measure binding between purified RIN1 and ABL proteins we designed a quantitative TR-FRET based assay.
The assay readout was calculated as a ratio of donor and acceptor emissions, a measurement independent of donor and acceptor concentrations that allows for reliable comparison across assays. Assay components were mixed in kinase buffer and incubated for one hour at room temperature to allow for RIN1-Y^36 phosphorylation by ABL1 and subsequent formation of a stable divalent interaction between these proteins. Each multi-well assay plate included negative control samples (streptavidin-terbium, ABL-eGFP and ATP without RIN1-SBP). […]

[3] = test system: MAPK1/3 phosphorylation in K562 cells; test: pMAPK in K562 (immunoblot pMAPK1/3 / MAPK1/3); type: cell-based, human; conditions: for %inhibition of MAPK1/3 phosphorylation (pMAPK/MAPK ratio): 10 μM, 4 hours at 37°C, vs DMSO control, six biological replicates
Protocol: […] Each compound was tested with six biological replicates. Band intensity was quantified using LI-COR Odyssey, and the ratio of pMAPK/MAPK signal intensity is graphed for each compound and its DMSO control. Compounds are identified by their PubChem CID number.
Membranes were scanned and signal intensity quantified using a Li-Cor Odyssey scanner. To quantify RIN1 expression, signal intensities were first normalized to the housekeeping gene, tubulin. Phospho-MAPK1/3 signal intensities were normalized to total MAPK1/3. Changes in protein expression or phosphorylation were calculated as fold-change compared to control vector.
K562 with vector or RIN1 overexpression lentivirus were previously described. To analyze MAPK1 phosphorylation, confluent K562 cells were lysed in NP-40 buffer and immunoblotted. […] Cells from each well were harvested, lysed in 400 µL NP-40 and immunoblotted.
To test each compound, 5x10^5 K562 cells were plated on a 10 cm tissue culture plate and incubated for 3 days. Cells were harvested and the volume brought to 12 mLs with fresh medium. 1 mL of the cells was distributed into each well of a 12-well tissue culture plate. In 6 of the wells, 10 µL of 1 mM compound was added per well. 10 µL of DMSO was added to the remaining wells and mixed by pipetting up and down. Cells were incubated at 37°C and 5% CO2 for 4 hours. After incubation, cells were harvested from each well, lysed in 150 µL of RIPA buffer and analyzed as above.

[4] = test system: K562 cells; test: K562 proliferation assay (MTS); type: cell-based, human; conditions: dose-response 3.125-100 μM, 48 hours, triplicate
Protocol: K562 cells were plated 3x10^4 cells/well in 96-well plates. Cells were treated with DMSO or test compound in dose-response (100, 50, 25, 12.5, 6.25, 3.125 μM) to a final DMSO concentration of 1%. After 48 hours of incubation at 37°C, cell proliferation was assessed by MTS assay (Promega CellTiter 96 AQueous One Solution) according to the manufacturer’s protocol. Absorbance at 490nm was read on a PerkinElmer Victor3 plate reader. Experiments were performed in triplicate.
K562 cells were treated with DMSO or test compound in dose-response. After 48 hours of incubation at 37°C, cell proliferation was assessed by MTS assay. Growth in the presence of test compound was normalized to DMSO-treated K562 cells and results are presented as % of growth relative to control. Experiments were performed in triplicate. (PDF) Click here for additional data file.

[5] = target: T2, ABL1-eGFP (CRK substrate) (Homo sapiens, UniProt P00519); test: In vitro kinase assay for direct ABL inhibitors; type: biochemical; conditions: 10 μM test compound, 0.5 nM ABL-eGFP, 2 μM CRK, 30 minutes at 30°C, anti-phosphotyrosine immunoblot
T2 construct: The ABL1 amino terminus was amplified from AblWT1-531 (gift of Dr. John Kuriyan); made in house; host or cells: Sf9 insect cells (baculovirus, pFastBac1)
T2 sequence (P00519 1-531 isoform P00519-2): as the sequence (P00519 1-531 isoform P00519-2) above
Protocol: To identify these direct ABL kinase inhibitors, we screened the compounds using an in vitro kinase assay. Purified ABL1-eGFP was incubated with CRK, a well-characterized substrate, in kinase buffer containing ATP.
0.5 nM purified ABL-eGFP was mixed with 2 μM CRK and 10 μM test compound and incubated in kinase buffer for 30 minutes at 30°C. Samples were analyzed by immunoblot using anti-phosphotyrosine. All the hits were screened, and a representative immunoblot is shown here.
The kinase assay to identify direct ABL kinase inhibitors from UCLA MSSR and TSRI hits was performed as described in PubChem BioAssay AID 624303 (https://pubchem.ncbi.nlm.nih.gov/assay/assay.cgi?aid=624303). Purified His6-CrkII was expressed and purified as previously described.

[6] = S2 Table, TR-FRET assay, maximal inhibition, read-out: Max response (%)

SMILES	IC50 ([2]; S2 Table) [nM]	Emax [2, 6] [%]	%inhibition of MAPK1/3 phosphorylation (pMAPK/MAPK ratio) [3] [%]	K562 proliferation (% growth relative to DMSO control) [4]	further results
NC(=O)c1cccc(-c2cc(Nc3ccc(OC(F)(F)F)cc3)ncn2)c1 [GNF-2]	–	–	–	–	activity against native ABL1 [1]: no activity
COc1ccc(C(=O)N2CCC(C(=O)Nc3ccc(CC(=O)Nc4ccc(C(=O)N(C)C5CC5)cc4)cc3)CC2)cc1 [compound 56844186]	3670	84.8	75 ± 33	decrease K562 proliferation	–
CN(C(=O)c1ccc(NC(=O)Cc2ccc(NC(=O)C3CCN(C(=O)c4ccccc4)CC3)cc2)cc1)C1CC1 [compound 44142745]	2530	86.2	52 ± 47	decrease K562 proliferation	Emax ([2]; S4 Table, N-acyl piperidine-4-carboxamide series SAR, RIN1-ABL dose-response curve, read-out: Max Response (%)): 89.1%
Cc1ccc(NC(=O)c2ccc(CN3CCN(C)CC3)cc2)cc1Nc1nccc(-c2cccnc2)n1 [imatinib, reference compound]	–	–	–	–	MAPK1/3 phosphorylation signal ([3]; 1 μM imatinib, 1 and 4 hours at 37°C): rapidly decreased
CN(C(=O)c1ccc(NC(=O)Cc2ccc(NC(=O)C3CCN(C(=O)c4ccc(F)cc4)CC3)cc2)cc1)C1CC1 [compound 56844185]	1060	85.2	57 ± 13	decrease K562 proliferation	–
COc1ccc(CCNc2cc(=O)nc(N)[nH]2)cc1 [CID 1532134, 2-amino-6-[2-(4-methoxyphenyl)ethylamino]-1H-pyrimidin-4-one]	–	–	–	–	ABL kinase activity: CRK and ABL phosphorylation [5]: no activity
O=C(O[C@@H]1Cc2c(O)cc(O)cc2O[C@@H]1c1cc(O)c(=O)c2c(O)c(O)cc([C@H]3Oc4cc(O)cc(O)c4C[C@H]3OC(=O)c3cc(O)c(O)c(O)c3)c2c1)c1cc(O)c(O)c(O)c1 [theaflavin-3,3’-digallate]	–	–	–	–	Activity in the TR-FRET screening assay (FRET ratio) ([2]; primary screen): decrease the FRET ratio; ABL kinase activity: CRK and ABL phosphorylation [5]: directly inhibits ABL trans-phosphorylation of CRK as well as ABL
COc1cccc(CSc2nnc(CSc3nc4nc(C)cc(C)n4n3)s2)c1 [compound 1818178]	9570	95.7	25 ± 20	decrease K562 proliferation	–
CN(C(=O)c1ccc(NC(=O)Cc2ccc(NC(=O)C3CCN(C(=O)c4cccc(F)c4)CC3)cc2)cc1)C1CC1 [compound 56844188]	1350	86.8	75 ± 31	decrease K562 proliferation	–
